According to US5849782A, “Methods of inhibiting neurodegenerative diseases” (The General Hospital Corporation, priority 1996, dated 1998):

Assays:
[1] = 3-NP-induced neurotoxicity in vitro; Riepe et al. 1994; cited from earlier work
[2] = system: Male Sprague-Dawley rats; assay: Spontaneous striatal electrophysiological activity; settings: MK-801 4 mg/kg after 7-NI; urethane anesthetized rats
Protocol: Electrophysiology. Four male Sprague-Dawley rats weighing 300 to 400 g were used for electrophysiological studies. Animals were anesthetized with urethane 1.5 g/kg i.p. and placed in a stereotaxic apparatus with their body temperatures maintained at 37° C. by a feedback heating pad. A 0.5×0.5 cm craniotomy was made and recording electrodes were placed in the anterior striatum using stereotaxic coordinates and aural monitoring. Following electrode placement the craniotomy was covered with 4% agar in saline and 30 min were allowed for stabilization before recordings were made. The spontaneous activity of multiple units were recorded extracellularly in the striatum, 3-4 mm anterior to the bregma and 3-4 mm lateral to the midline at a depth of 2.5-4.0 mm using commercially available tungsten microelectrodes (4 M.OMEGA. at 1 kHz, F. Haer, Inc.). […] Data acquisition and analysis of mean firing rate was performed using Discovery.COPYRGT., Experimenters WorkBench.COPYRGT. and Personal Scientific Workstation.COPYRGT. software (DataWave Technologies, Longmont, Colo.). We investigated the electrophysiological effects of the NMDA antagonist MK-801 and the NOS inhibitor 7-NI. […] Finally, spontaneous activity was recorded after the NMDA channel mediated activity was blocked by injection of MK-801 (4 mg/kg).

[3] = system: Male Swiss-Webster mice; assay: 3-nitrotyrosine to tyrosine ratio in mouse striatum after MPTP; format: in vivo; settings: MPTP 20 mg/kg x4
Protocol: (§1) Dopamine, 3,4-dihydroxyphenlyacetic acid (DOPAC), homovanillic acid (HVA), p-tyrosine, and 3-nitrotyrosine were quantified by HPLC with 16-electrode electrochemical detection (Beal et al. (1990) supra) and are expressed as ng/mg protein (mean±SEM) (FIG. 1). 3-Nitrotyrosine data are expressed as ratios of 3-nitrotyrosine to p-tyrosine to normalize for differing brain concentrations of tyrosine. The statistical significance of differences was determined via one-way ANOVA followed by Fisher PLSD post hoc test to compare group means. All animal use procedures were in strict accordance with the NIH Guide for the Care and Use of Laboratory Animals and were approved by the local Animal Care Committee.
Role of Peroxynitrite in MPTP. To determine whether peroxynitrite plays a role in MPTP neurotoxicity, we therefore measured the ratio of 3-nitrotyrosine to tyrosine in mouse striatum following administration of MPTP.

[4] = system: Male Swiss-Webster mice; assay: MPTP-induced neurotoxicity in mice: striatal dopamine, DOPAC, HVA; format: in vivo, mouse; settings: at 1 week
Protocol: Methods. Male Swiss-Webster mice (30-35 g:Taconic Farms, Germantown, N.Y., U.S.A.) were treated with either normal saline or MPTP hydrochloride (Research Biochemicals, Natick, Mass., U.S.A.). MPTP was administered in 0.1 ml of water at a dose of 10 mg/kg i.p. at 2-h intervals for six doses or 20 mg/kg i.p. at 2-h intervals for four doses. 7-NI (Cookson Chemical Ltd., Southhampton, U.K.) was dissolved in peanut oil (Sigma, St. Louis, Mo., U.S.A.) at a concentration of 5 mg/ml. Mice received doses of 25 or 50 mg/kg per subcutaneous injection. MPTP-treated animals were treated with peanut oil or 7-NI 12 h before the first, at every MPTP injection, and every 8 h for 48 h after MPTP injections. Eleven to 12 animals were used in each group. Animals were killed at 1 week. The two striata were rapidly dissected and placed in chilled 0.1M perchloric acid. Tissue was subsequently sonicated, and aliquots were taken for protein quantification using a fluorometric assay (Beal et al., 1990) J. Neurochem. 55:1327-1339).
as §1

[5] = target: dopamine transporter (Mus musculus, UniProt Q61327); settings: read-out: concentration giving complete inhibition of [3H]dopamine uptake
[6] = MPTP 10 mg/kg x6 at 2-h intervals

Sequence of dopamine transporter (Q61327 whole entry): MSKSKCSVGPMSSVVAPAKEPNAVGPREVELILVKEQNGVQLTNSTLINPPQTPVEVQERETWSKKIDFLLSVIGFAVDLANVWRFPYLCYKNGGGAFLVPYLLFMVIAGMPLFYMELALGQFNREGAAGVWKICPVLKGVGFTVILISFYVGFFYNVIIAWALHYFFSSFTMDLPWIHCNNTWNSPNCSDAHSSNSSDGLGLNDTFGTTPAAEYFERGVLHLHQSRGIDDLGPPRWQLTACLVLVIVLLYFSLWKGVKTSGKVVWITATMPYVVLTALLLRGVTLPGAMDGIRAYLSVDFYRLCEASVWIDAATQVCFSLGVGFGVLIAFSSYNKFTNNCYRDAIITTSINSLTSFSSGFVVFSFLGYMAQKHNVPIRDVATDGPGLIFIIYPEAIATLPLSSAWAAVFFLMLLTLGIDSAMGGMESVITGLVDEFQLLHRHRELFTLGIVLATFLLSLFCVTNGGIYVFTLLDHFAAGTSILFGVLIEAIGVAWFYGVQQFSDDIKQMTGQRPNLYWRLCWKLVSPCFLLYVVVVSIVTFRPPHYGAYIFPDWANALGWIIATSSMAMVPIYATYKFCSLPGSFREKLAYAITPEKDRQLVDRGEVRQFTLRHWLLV

In the case of `C[C@]12N[C@H](Cc3ccccc31)c1ccccc12` [MK-801, reference compound], the “effect on ATP depletions” value [1] is given as “had no effect” and the “decrease in mean firing rate in striatum” value [2] is given as “rapid and profound”.
For `CN1CC=C(c2ccccc2)CC1` [MPTP, 1-methyl-4-phenyl1,2,3,6-tetrahydropyridine], the “increase of 3-nitrotyrosine to tyrosine ratio” value [3] was 31%, the “depletion in striatal DOPAC levels” value [4, 6] was 27% and the “depletion in striatal HVA levels” value [4, 6] was 35%. For the same molecule, the “depletion in striatal dopamine levels” value [4, 6] was 38% and the “depletion in striatal dopamine levels” value ([4]; MPTP 20 mg/kg x4) was 64%.
For `OC1(c2ccc(Cl)cc2)c2ccccc2C2=NCCN21` (centres unmarked) [mazindol, reference compound], the IC100 [5] was 1 µM.
